The source of these data is patent US20100048729A1, “Composition based on xanthoxyline and its use in cosmetic” (PIERRE FABRE DERMO-COSMETIQUE, priority 2006, published 2010).

One may read the inhibition as how much of the control response was suppressed.

Assay [1] deals with 3T3F442A preadipocytes. The experiment in a line: Adipocyte differentiation: triglyceride accumulation (Adipored) in differentiated 3T3F442A cells. To be noted: 168 h, 0.3 μg/ml, 7 days differentiation, FIG. 2, read-out: inhibition (accumulation of triglycerides), optimum activity. It counts as cell-based. The procedure:
The Applicant has studied on the one hand the effect of a dry extract of Zanthoxylum bungeanum, and on the other hand the effect of xanthoxyline, on the process of adipocyte differentiation and proliferation. […] 3T3F442A prepadipocytes are capable of differentiating into adipocytes in the presence of insulin, 3-isobutyl-1-methylxanthine and dexamethasone (the Journal of Pharmacology and Experimental Therapeutics: RIVAL Y., 2004, 311(2): 467-475). […] 3T3F442A cells are cultured in DMEM medium (GIBCOBRL, ref 32430-027) containing 10% foetal calf serum at 37° C., 5% CO2 in a humid atmosphere. They are seeded at 5000 cells per well (96-well plate). […] The visualisation and quantification of intracellular lipid vacuoles in the differentiated cells are analysed using Adipored reagent, a fluorescent colorant specific to triglycerides (neutral and amphiphilic lipids) (Journal of Cell Biology: […]., 1985, 100: 965-973). The culture medium is removed and the cells are rinsed with phosphate buffer D-PBS (GIBCOBRL, ref 21300-058). Adipored reagent is then added. After incubation for 10 minutes at ambient temperature, the fluorescence is measured (excitation 485 nm, emission 530 nm). A histological analysis using a confocal Laser microscope (ZEISS LSM 410 Invert Laser scan Microscope) is also carried out at 543 nm.

Assay [2] has as its system Candida albicans. The following applies: literature; cited from earlier work.
For assay [3], the system named is Penicillium expansum. To be noted: literature; cited from earlier work.
In assay [4] the test system is pathogenic fungi such as Trichophyton. The following applies: literature; cited from earlier work.
Assay [5] concerns gram-positive and gram-negative bacteria. To be noted: literature; cited from earlier work.
In assay [6] the test system is 3T3F442A preadipocytes. To be noted: adipocyte differentiation model over a long culture period; literature; cited from earlier work.

On to `COc1cc(O)c(C(C)=O)c(OC)c1` [Xanthoxyline, 4,6-dimethoxy-2-hydroxyacetophenone], for which the inhibition at 0.3 µg/mL in assay [1] came to 12%. Besides, the Anti-fungal activity result in assay [2], in assay [3] and in assay [4] was “moderate” in each case. Besides, the Anti-bacterial activity entry in assay [5] is “mediocre”.

For the compound TNFα, the “inhibition of the accumulation of triglycerides” value in assay [6] was “known to inhibit the accumulation of triglycerides”.
